From article PMC9738192, “Lupane Triterpene Derivatives Improve Antiproliferative Effect on Leukemia Cells through Apoptosis Induction” (Molecules, 2022) come the findings set out here.

For test [1], the system named is K562 cells. Kind of test: Apoptosis assay (annexin V-FITC / 7-AAD). The test is classed as cell-based, human. As to the method:
Cells (2 × 10^5) were cultured in 24-well plates and treated with compound T1m at two different concentrations (19.5 and 39.0 µg/mL), to later be incubated for 18, 24, and 48 h. After this time, cells were washed with PBS and stained with annexin V-FITC and 7-AAD apoptosis kit (BD Bioscience) and incubated in the dark for 15 min. Then they were analyzed by CytoFlex flow cytometry (Beckman Coulter, Indianapolis, IN, USA).

The subject of test [2] is HL60 cell line. Kind of test: Bioassay of viability in leukemic cell lines (DAPI, flow cytometry). Conditions: for IC50: Homo sapiens, HL-60, HL60, 48 h. The test is classed as cell-based, human. From the text: (§1) Chronic myeloid leukemia (K562; ATCC CCL-243), acute myeloid leukemia (HL60; ATCC CCL-240), and green monkey kidney cells (Vero, ATCCCCL-81) from the American Type Culture Collection (ATCC) were provided by María Antonieta Chávez Gónzalez from Unidad de Investigación Oncológica, Hospital de Oncología, Centro Médico Nacional, Instituto Mexicano del Seguro Social (IMSS, Ciudad de México, México). The K562 cell line was maintained with RPMI medium at 10% FBS, the HL60 cell line was maintained with IMDM medium at 20% FBS, and the VERO cell line was maintained with DMEM medium at 10% FBS; 1% penicillin-streptomycin was added to both cell lines and incubated at an atmosphere of culture with 95% humidity and 5% CO2 at 37 °C. All evaluation was performed between 4 and 5 cell passages.
(§2) In all cases, medium with DMSO (0.1%) was used as a negative control, and etoposide was used as positive control for K562, HL60, Vero cell lines, and normal MNC. All tests were carried out in triplicate.
(§3) A total of 2 × 10^5 cells/well were cultured into 24-well plates and treated with different concentrations of four compounds (0.1, 1, 10, and 100 μg/mL) for 48 h. At the end of this time, the cells were collected and stained with 4′,6-diamidino-2-phenylindole dihydrochloride (DAPI) at 500 ng/mL for 30 min, according to manufacturer instructions, for 15 min in darkness. The samples were then analyzed by flow cytometry using a CytoFlex flow cytometer (Beckman Coulter, Indianapolis, IN, USA).
(§4) All cytometric data were analyzed using FlowJo^TM v10.6 software. Results of viability are expressed as the concentration of agent that reduces cell growth by 50% (IC50), calculated by GraphPad Prism 5 software. The data were expressed as means ± SEM. Statistical significance was calculated with a one-way analysis of variance (ANOVA) followed by Dunnett’s post-hoc test, applying a p < 0.05 significance level.

For test [3], the system named is K562 cell line. Described as above. The test is classed as cell-based, human. The settings on record: for IC50: Homo sapiens, K562, 48 h.
Excerpt: as §1, §2, §3, §4

Test [4] concerns K562 cells. Kind of test: Cell cycle assay (DAPI, flow cytometry). The test is classed as cell-based, human. On the procedure:
One million cells of K562 were cultured in 12-well plates and incubated for 18, 24, and 48 h with compound T1m at two different concentrations (19.5 and 39.0 μg/mL). After this time, the cells were collected and centrifuged at 300× g at room temperature for 5 min. The cells were resuspended in PBS, added absolute ethanol on ice, and incubated for 1 h at 4 °C. After that. Cells were centrifuged at 300× g at 4 °C for 5 min. Next, cells were washed with PBS 3% FBS and permeabilized for 20 min with 0.1% triton. After, the cells were stained with DAPI at 500 ng/mL for 1 h. After this procedure, cells were analyzed using […]. Cells analysis was carried out in an Attune flow cytometer (Thermo Fisher Scientific, Carlsbad, CA, USA).

Test [5] relates to K562 cell line. Kind of test: Assessment of intracellular reactive oxygen species (CM-H2DCFDA). The test is classed as cell-based, human. On the procedure:
Cells (1× 10^5) were cultured in 12-well plates and were stained with 10 μM of chloromethyl 2′,7′-dichlorodihydrofluorescein diacetate (CM-H2DCFDA) for 30 min at 37 °C. Briefly, the cells were treated with compound 1m at two different concentrations (19.5 and 39.0 µg/mL) and control (H2O2 at 50 µM) to later be incubated for 2 and 4 h. After this time, cells were analyzed using CytoFlex flow cytometry (Beckman Coulter, Indianapolis, IN, USA).

Test [6] has as its system Vero cell line. As to the kind of experiment: Bioassay of viability in Vero cell line (SRB). The settings on record: Chlorocebus sabaeus; Vero normal cell line, 48 h. The test is classed as cell-based, green monkey.
Excerpt: as §1
The cells (1 × 10^4 cells/well) were seeded onto 96-well plates and incubated at 37 °C and 5% CO2 until reaching 70–80% confluence. The medium was replaced with fresh medium containing the […] different concentrations (0.1, 1, 10, and 100 μg/mL) of compounds for 48 h. After 100 μL of 10% trichloroacetic acid were added to each well, and cells were incubated for 30 min at 4 °C. Then the supernatant was removed, 100 μL of sulforhodamine B (SRB) at 0.1% with 1% of acetic acid were added, and incubated again for 15 min. Subsequently, washings were carried out with 1% acetic acid; and finally, the dye was solubilized with 200 uL of tris-base at 10 mM; and the optical density was measured at 560 nm using a GloMax spectrophotometer (Promega, WI, USA).
as §4

Test [7] relates to peripheral blood mononuclear cells (MNC). As to the kind of experiment: Viability test in normal mononuclear cells (DAPI, flow cytometry). The test is classed as cell-based. The settings on record: Homo sapiens, PBMC, 48 h. As to the method: Normal mononuclear cells were obtained from normal human peripheral blood monocytes and donated by the corresponding author (Moo-Puc) of the manuscript submitted. The MNC was purified with FicollPaque Plus (Pharmacia Biotech, Uppsala, Sweden) by centrifugation at 400× g at room temperature for 30 min according to the manufacturer’s protocol. Once the MNC were obtained, they were resuspended in RPMI medium (ATCC) with 10% FBS, and they were counted using a hemocytometer, previously stained with a trypan blue solution, verifying the viability of 95% [61].
Cells were plated at 2 × 10^5 cells/well in 24-well plates and incubated with different concentrations of compounds T1m (0.1, 1, 10, and 100 μg/mL) for 48 h. RPMI with 10% FBS was used as a culture medium for cell growth. After this time, cells were collected, washed with PBS, and stained with DAPI at 500 ng/mL for 30 min, according to manufacturer instructions. Cells analysis was carried out in a CytoFlex flow cytometer (Beckman Coulter, Indianapolis, IN, USA).
All cytometric data were analyzed using FlowJo^TM v10.6 software. […] The data were expressed as means ± SEM. Statistical significance was calculated with a one-way analysis of variance (ANOVA) followed by Dunnett’s post-hoc test, applying a p < 0.05 significance level.

In test [8] the test system is K562 cell line. As to the kind of experiment: Assessment of mitochondrial membrane potential (rhodamine 123). Conditions: 18 h, Rho-123. The test is classed as cell-based, human. On the procedure: Cells (1× 10^5) were cultured in 12-well plates and treated with compound 1m at two different concentrations (19.5 and 39.0 µg/mL), to later be incubated for 18 h. After this time, cells were stained with 5 μM of rhodamine 123 (Rho-123) and incubated for 30 min at 37 °C. Briefly, cells were washed with PBS and analyzed using a Cytoflex flow cytometer (Beckman Coulter, Indianapolis, IN, USA).

Molecules are shown by their SMILES. In brackets after ≈: the same amount, converted by molar mass. Where only a bound is given, the exact number is not on record here.

Take `C=C(C)[C@@H]1CC[C@]2(C(=O)O)CC[C@]3(C)C(CCC4[C@@]5(C)CC[C@@H](OC)[C@](C)(CO)C5CC[C@]43C)C12` (stereo partly drawn) [Compound T1m, 3α-methoxy-24-hydroxylup-20(29)-en-28-oic acid]: the “apoptotic cell population (positive annexin V-FITC)” value turned out to be 11.91 ± 1.04% in test [1] (K562, 19.5 μg/mL, 48 h); 12.50 ± 0.65% in test [1] (K562, 39.0 μg/mL, 18 h); 27.47 ± 1.23% in test [1] (K562, 39.0 μg/mL, 48 h); 24.35 ± 1.04% in test [1] (K562, at IC50 (39.0 μg/mL), 24 h). For the same molecule, the IC50 in test [2] worked out at 68.6 ± 1.2 µg/mL (≈ 141 µM); in test [3], 39.5 ± 1.1 µg/mL (≈ 81.1 µM); in test [6] it was 66.8 ± 1 µg/mL (≈ 137 µM); in test [7] it was 86.5 ± 1.2 µg/mL (≈ 178 µM). The “selectivity index (IS)” value amounted to 1.26 in test [2] (IC50 MNC over IC50 HL60), 2.19 in test [3] (IC50 MNC over IC50 K562) and 1.69 in test [3] (IC50 Vero over IC50 K562). For the same molecule, the “cell cycle distribution vs negative control” value in test [4] (K562, 19.5 μg/mL, 18 h) is recorded as “No difference”. The sub-G0 population in test [4] (K562, 39.0 μg/mL, 18 h) came to 7.29 ± 0.05%; in test [4] (K562, 39.0 μg/mL, 24 h) it was 13.30 ± 1.20%; in test [4] (K562, at IC50 (39.0 μg/mL), 48 h) it was 85.85 ± 0.15%. Further, the “ROS increase vs negative control” value in test [5] (K562, 19.5 μg/mL, 2 h) is recorded as “five-fold”; in test [5] (K562, 19.5 μg/mL, 4 h) it was “six-fold”; in test [5] (K562, 39.0 μg/mL, 2 h) it was “seven-fold”; in test [5] (K562, 39.0 μg/mL, 4 h) it was “nine-fold”. Moreover, the “MMP (mitochondrial membrane potential) compared with negative control” value was “approximately 45%” in test [8] (K562, 19.5 μg/mL) and 67% in test [8] (K562, 39.0 μg/mL).

`COc1cc([C@@H]2c3cc4c(cc3[C@@H](O[C@@H]3O[C@@H]5CO[C@@H](C)O[C@H]5[C@H](O)[C@H]3O)[C@H]3COC(=O)[C@H]23)OCO4)cc(OC)c1O` [Etoposide, etoposide, reference compound]: the “apoptotic cell population (positive annexin V-FITC)” value in test [1] (K562, positive control, 18 h) was 13.34 ± 0.04%; in test [1] (K562, positive control, 24 h) it was 17.91 ± 0.06%; in test [1] (K562, positive control, 48 h), 32.60 ± 0.55%. In addition, the IC50 was 1.3 ± 0.3 µg/mL (≈ 2.21 µM) in test [2], 14.7 ± 1.2 µg/mL (≈ 25 µM) in test [3], 29.4 ± 1.1 µg/mL (≈ 50 µM) in test [6] and over 100 µg/mL in test [7]. Further, the “selectivity index (IS)” value in test [2] (IC50 MNC over IC50 HL60) is over 76.92; in test [2] (IC50 Vero over IC50 HL60), 22.63; in test [3] (IC50 MNC over IC50 K562) it was over 6.80; in test [3] (IC50 Vero over IC50 K562), 2.00. Further, in test [4] (K562, 14.7 μg/mL, 18 h, positive control), the G2 population result is given as “increase”. Moreover, the “ROS increase vs negative control” value in test [5] (K562, positive control, 2 h) is on record as “six-fold”.

As for `C=C(C)[C@@H]1CC[C@]2(C(=O)OC)CC[C@]3(C)C(CCC4[C@@]5(C)CC[C@H]6OC(C)(C)OC[C@@]6(C)C5CC[C@]43C)C12` (stereo partly drawn) [Compound T2COOMe, methyl ester of 3α,23-O-isopropylidenyl-3α,23-dihydroxylup-20(29)-en-28-oic acid], the IC50 is over 100 µg/mL in test [2], over 100 µg/mL in test [3] and over 200 µg/mL in test [6].

On to `C=C(C)[C@@H]1CC[C@]2(C(=O)O)CC[C@]3(C)C(CCC4[C@@]5(C)CC[C@@H](OC(C)=O)[C@](C)(CO)C5CC[C@]43C)C12` (stereo partly drawn) [Compound T1Ac, 3α-acetyl-24-hydroxylup-20(29)-en-28-oic acid], for which the IC50 was over 100 µg/mL in test [2], over 100 µg/mL in test [3] and over 200 µg/mL in test [6].

For the molecule `C=C(C)[C@@H]1CC[C@]2(C(=O)O)CC[C@]3(C)C(CCC4[C@@]5(C)CC[C@H]6OC(C)(C)OC[C@@]6(C)C5CC[C@]43C)C12` (stereo partly drawn) [Compound T2, 3α,23-O-isopropylidenyl-3α,23-dihydroxylup-20(29)-en-28-oic acid], the IC50 in test [2] is over 100 µg/mL; in test [3], over 100 µg/mL; in test [6] it was over 200 µg/mL.

On to `OO` [Compound H2O2, H2O2, reference compound], for which the “ROS increase vs negative control” value in test [5] (K562, damage control (50 µM), 2 h) was “seven-fold”.

In the case of `C=C(C)[C@@H]1CC[C@]2(C(=O)O)CC[C@]3(C)C(CCC4[C@@]5(C)CC[C@@H](O)[C@](C)(CO)C5CC[C@]43C)C12` (stereo partly drawn) [Compound T1, 3α,24-dihydroxylup-20(29)-en-28-oic acid], the IC50 was over 100 µg/mL in test [2], 100 ± 1 µg/mL (≈ 212 µM) in test [3] and 137.2 ± 1.1 µg/mL (≈ 290 µM) in test [6]. For the same molecule, the “selectivity index (IS)” value in test [3] (IC50 Vero over IC50 K562) was 1.37.
